Assay results: patent US5594135A, “Tricyclic DNA gyrase inhibitors” (Hoffmann-La Roche Inc., priority 1994, dated 1997)
Converted amounts (≈) assume the structure as drawn. Where a name gives a salt, the structure may show the parent alone.

Assays:
[1] = tested on: E. coli B; test: Antibacterial activity in vitro (agar dilution); assay type: cell-based; settings: Escherichia coli, agar dilution (MuellerHinton agar), inoculum 10^4 CFU/spot, read-out: minimum inhibitory concentration (MIC)
[2] = tested on: P. aeruginosa 799/61; test: Antibacterial activity in vitro (agar dilution); assay type: cell-based; settings: Pseudomonas aeruginosa, agar dilution (MuellerHinton agar), inoculum 10^4 CFU/spot, read-out: minimum inhibitory concentration (MIC)
[3] = tested on: S. aureus 25923; test: Antibacterial activity in vitro (agar dilution); assay type: cell-based; settings: Staphylococcus aureus, agar dilution (MuellerHinton agar), inoculum 10^4 CFU/spot, read-out: minimum inhibitory concentration (MIC)
[4] = tested on: S. aureus Smith; test: Antibacterial activity in vitro (agar dilution); assay type: cell-based; settings: Staphylococcus aureus, agar dilution (MuellerHinton agar), inoculum 10^4 CFU/spot, read-out: minimum inhibitory concentration (MIC)
[5] = tested on: S. epidermidis 16-2; test: Antibacterial activity in vitro (agar dilution); assay type: cell-based; settings: Staphylococcus epidermidis, 162, agar dilution (MuellerHinton agar), inoculum 10^4 CFU/spot, read-out: minimum inhibitory concentration (MIC)
[6] = tested on: S. pyogenes 15; test: Antibacterial activity in vitro (agar dilution); assay type: cell-based; settings: Streptococcus pyogenes, agar dilution (MuellerHinton agar), inoculum 10^4 CFU/spot, read-out: minimum inhibitory concentration (MIC)
[7] = tested on: S. faecalis 6; test: Antibacterial activity in vitro (agar dilution); assay type: cell-based; settings: Enterococcus faecalis, agar dilution (MuellerHinton agar), inoculum 10^4 CFU/spot, read-out: minimum inhibitory concentration (MIC)
[8] = target: T1, DNA gyrase (Escherichia coli, UniProt P0AES4+P0AES6); test: Inhibition of DNA gyrase activity (DNA gyrase supercoiling assay, relaxed pUC18 plasmid as substrate); assay type: biochemical, E. coli H560
T1 construct: supercoiling of relaxed pUC18
T1 sequence (P0AES4 whole entry, one chain of several): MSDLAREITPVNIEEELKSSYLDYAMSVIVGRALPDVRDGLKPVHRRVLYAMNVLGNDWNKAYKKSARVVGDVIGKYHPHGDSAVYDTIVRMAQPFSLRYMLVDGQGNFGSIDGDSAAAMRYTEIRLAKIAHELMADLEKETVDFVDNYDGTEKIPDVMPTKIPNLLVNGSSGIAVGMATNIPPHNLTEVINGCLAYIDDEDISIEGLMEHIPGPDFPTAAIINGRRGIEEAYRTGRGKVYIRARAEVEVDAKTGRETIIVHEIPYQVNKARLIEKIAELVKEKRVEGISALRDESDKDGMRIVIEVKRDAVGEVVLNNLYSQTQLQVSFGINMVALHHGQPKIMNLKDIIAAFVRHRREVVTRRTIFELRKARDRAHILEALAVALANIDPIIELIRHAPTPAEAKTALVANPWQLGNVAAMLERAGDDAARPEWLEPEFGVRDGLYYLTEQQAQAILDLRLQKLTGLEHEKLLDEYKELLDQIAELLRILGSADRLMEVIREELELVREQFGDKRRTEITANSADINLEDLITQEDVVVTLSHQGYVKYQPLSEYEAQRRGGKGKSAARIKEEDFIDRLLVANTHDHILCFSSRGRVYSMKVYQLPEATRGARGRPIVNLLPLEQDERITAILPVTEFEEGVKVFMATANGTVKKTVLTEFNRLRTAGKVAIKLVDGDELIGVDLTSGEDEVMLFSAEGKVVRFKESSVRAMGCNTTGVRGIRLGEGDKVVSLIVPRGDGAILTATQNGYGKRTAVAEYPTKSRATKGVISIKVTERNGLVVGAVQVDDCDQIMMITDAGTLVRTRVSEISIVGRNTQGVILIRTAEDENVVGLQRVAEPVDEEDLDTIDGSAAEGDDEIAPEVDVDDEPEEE
Method: A. Inhibition of DNA gyrase activity
The inhibition of DNA gyrase activity was measured using a DNA gyrase supercoiling assay according to R. Otter & N. Cozzarelli: Methods in Enzymology, Vol. 100, pp 171-180 (1983). DNA gyrase was isolated from E. coli H560, and relaxed pUC18 plasmid was used as substrate. The activities as regards inhibition of DNA gyrase activity, expressed as maximum non-effective concentration of the test compound (MNC in μg/ml) are compiled in the following Table 1: […]

Row | Structure (SMILES) | MIC [1] [µg/mL] | MIC [2] [µg/mL] | MIC [3] [µg/mL] | MIC [4] [µg/mL] | MIC [5] [µg/mL] | MIC [6] [µg/mL] | MIC [7] [µg/mL] | maximum non-effective concentration of the test compound (MNC) [8] [µg/mL]
1 | COC(=O)c1c(C)c(OC)cc(O)c1CSC[C@H](Nc1nc(-c2ccccc2)ns1)c1nc(C)no1 [Example 175, (R)-3-hydroxy-5-methoxy-6-methyl-2-[2-(3-methyl-1,2,4-oxadiazol-5-yl)-2-(3-phenyl-1,2,4-thiadiazol-5-ylamino)-ethylsulfanylmethyl]-benzoic acid methyl ester] | > 64 | > 64 | 4 (≈ 7.58 µM) | 1 (≈ 1.9 µM) | 1 (≈ 1.9 µM) | 4 (≈ 7.58 µM) | 4 (≈ 7.58 µM) | 
2 | COC(=O)[C@@H]1CSCc2c(O)cc(OC)c(C)c2C(=O)OCCCCC(=S)N1 [Example 23, (R)-16-hydroxy-14-methoxy-13-methyl-12-oxo-6-thioxo-1,3,4,5,6,7,8,9,10,12-decahydro-11,2,5-benzoxathiaazacyclotetradecine-4-carboxylic acid methyl ester] | 16 (≈ 37.4 µM) | 8 (≈ 18.7 µM) | 0.5 (≈ 1.17 µM) | 0.25 (≈ 0.585 µM) | 0.12 (≈ 0.281 µM) | 2 (≈ 4.68 µM) | 1 (≈ 2.34 µM) | 0.01
3 | COc1cc(O)c2c(c1C)C(=O)OCCCCC(=O)N[C@H](c1nc(CNC(C)C)no1)CSC2 [Example 132, (R)-16-hydroxy-4-[3-(isopropylamino)-methyl-1,2,4-oxadiazol-5-yl]-14-methoxy-13-methyl-1,3,4,5,6,7,8,9,10,12-decahydro-11,2,5-benzoxathiaazacyclotetradecin-6,12-dione hydrochloride] | 64 | > 64 | 4 | 2 | 0.5 | 4 | 4 | 
4 | COc1cc(O)c2c(c1C)C(=O)O[C@H](CO)CCC(=S)N[C@H](C(=O)NC1CCCC1)CSC2 [Example 14, (4R,9S)-15-hydroxy-9-hydroxymethyl-13-methoxy-12-methyl-11-oxo-6-thioxo-3,4,5,6,7,8,9,11-octahydro-1H-10,2,5-benzoxathiaazacyclotridecine-4-carboxylic acid cyclopentylamide] | 64 (≈ 129 µM) | 8 (≈ 16.1 µM) | 16 (≈ 32.2 µM) | 8 (≈ 16.1 µM) | 1 (≈ 2.01 µM) | 4 (≈ 8.05 µM) | 4 (≈ 8.05 µM) | 0.2
5 | COC(=O)c1c(Cl)c(OC)cc(O)c1CSC[C@H](NC(C)=S)c1nc(C)no1 [Example 92, (R)-2-chloro-5-hydroxy-3-methoxy-6-[2-(3-methyl-1,2,4-oxadiazol-5-yl)-2-thioacetylamino-ethylsulfanylmethyl]-benzoic acid methyl ester] | > 64 | 64 (≈ 144 µM) | 4 (≈ 8.97 µM) | 2 (≈ 4.48 µM) | 1 (≈ 2.24 µM) | 8 (≈ 17.9 µM) | 8 (≈ 17.9 µM) | 0.04
6 | COC(=O)[C@@H]1CSCc2c(O)cc(OC)c(C)c2C(=O)OC[C@H](O)CCC(=S)N1 [Example 32, (4R,9R)-9,16-dihydroxy-14-methoxy-13-methyl-12-oxo-6-thioxo-1,3,4,5,6,7,8,9,10,12-decahydro-11,2,5-benzoxathiaazacyclotetradecine-4-carboxylic acid methyl ester] | > 64 | 4 (≈ 9.02 µM) | 1 (≈ 2.25 µM) | 0.5 (≈ 1.13 µM) | 0.25 (≈ 0.564 µM) | 2 (≈ 4.51 µM) | 2 (≈ 4.51 µM) | 0.01
7 | COC(=O)c1c(Br)c(OC)cc(O)c1CSC[C@H](Nc1nc(-c2ccc(C(=O)O)cc2)cs1)c1nc(C)no1 [Example 171] | > 64 | > 64 | 8 (≈ 12.6 µM) | 4 (≈ 6.29 µM) | 1 (≈ 1.57 µM) | 2 (≈ 3.15 µM) | 4 (≈ 6.29 µM) | 
8 | COc1cc(O)c2c(c1C)C(=O)OCCCCC(=S)N[C@H](C(N)=O)CSC2 [Example 69, (R)-16-hydroxy-14-methoxy-13-methyl-12-oxo-6-thioxo-1,3,4,5,6,7,8,9,10,12-decahydro-11,2,5-benzoxathiaazacyclotetradecine-4-carboxylic acid amide] | > 64 | > 64 | 4 (≈ 9.7 µM) | 2 (≈ 4.85 µM) | 0.25 (≈ 0.606 µM) | 2 (≈ 4.85 µM) | 2 (≈ 4.85 µM) | 0.04
9 | COc1cc(O)c2c(c1C)C(=O)OCCCCC(=S)N[C@H](c1nc(CNC(C)=O)no1)CSC2 [Example 142, (R)-N-[5-(16-hydroxy-14-methoxy-13-methyl-12-oxo-6-thioxo-1,3,4,5,6,7,8,9,10,12-decahydro-11,2,5-benzoxathiaazacyclotetradecin-4-yl)-1,2,4-oxadiazol-3-ylmethyl]-acetamide] | 64 (≈ 126 µM) | > 64 | 2 (≈ 3.93 µM) | 1 (≈ 1.97 µM) | 0.12 (≈ 0.236 µM) | 1 (≈ 1.97 µM) | 1 (≈ 1.97 µM) | 
